What all share (test): Picrotoxin inhibition of GABA responses, two electrode voltage clamp in Xenopus oocytes
Holding throughout (format): cell-based

Assay [1] has as its target T1, 4M2 mutant Drosophila RDL receptor (N-7′H, T6′M, A20′S and A21′Q) (Drosophila melanogaster, UniProt P25123, A319S/A320Q/N292H/T305M).
T1 construct: expressed in transfected cells; host or cells: Xenopus laevis oocytes injected with cRNA
T1 sequence (P25123 45-606 N292H/T305M/A319S/A320Q): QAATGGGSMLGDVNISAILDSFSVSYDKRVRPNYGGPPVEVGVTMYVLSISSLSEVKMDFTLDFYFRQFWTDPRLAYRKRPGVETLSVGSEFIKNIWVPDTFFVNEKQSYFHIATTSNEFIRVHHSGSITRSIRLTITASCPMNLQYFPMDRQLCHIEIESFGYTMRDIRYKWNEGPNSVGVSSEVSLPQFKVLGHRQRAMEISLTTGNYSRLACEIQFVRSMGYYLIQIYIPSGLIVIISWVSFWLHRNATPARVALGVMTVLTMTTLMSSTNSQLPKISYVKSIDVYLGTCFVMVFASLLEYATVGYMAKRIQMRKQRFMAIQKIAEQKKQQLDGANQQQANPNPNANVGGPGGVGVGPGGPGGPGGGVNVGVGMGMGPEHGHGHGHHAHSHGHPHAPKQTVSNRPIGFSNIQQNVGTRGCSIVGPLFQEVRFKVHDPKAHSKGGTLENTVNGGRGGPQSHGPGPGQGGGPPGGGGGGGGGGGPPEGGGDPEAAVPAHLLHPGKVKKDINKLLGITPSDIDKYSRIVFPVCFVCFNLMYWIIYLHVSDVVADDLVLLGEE
As to conditions: 4M2 RDL. As for the experimental part:
(§1) X. laevis oocyte-positive females were purchased from NASCO (Fort Atkinson, Wisconsin, USA) and maintained according to standard methods. Harvested stage V-VI Xenopus oocytes were washed in four changes of ND96 (96 mM NaCl, 2 mM KCl, 1 mM MgCl2, 1 mM CaCl2, 5 mM HEPES, pH 7.5), de-folliculated in 1.5 mg ml^−1 collagenase Type 1A for approximately 2 h, washed again in four changes of ND96 and stored in ND96 containing 2.5 mM sodium pyruvate, 0.7 mM theophylline and […].
(§2) Drosophila RDL subunit cDNA (kindly gifted from N.Millar) was subcloned into pGEMHE for oocyte expression as previously described ([McGonigle and Lummis, 2010], [Millar et al., 1994]). Site directed mutagenesis was performed with the QuikChange mutagenesis kit (Agilent, La Jolla, CA). cRNA was transcribed in vitro from linearised pGEMHE cDNA template using the mMessage mMachine T7 Transcription kit (Ambion, Austin, Texas, USA). Stage V and VI oocytes were injected with 5 ng cRNA, incubated at 18 °C, and currents recorded 18–24 h post-injection.
(§3) Xenopus oocytes were clamped at −60 mV using an OC-725 amplifier (Warner Instruments, Connecticut, USA), Digidata 1322A and the Strathclyde Electrophysiology Software Package (Department of Physiology and Pharmacology, University of Strathclyde, UK), or using the Roboocyte (MultiChannel Systems). Currents were recorded at 5 kHz and filtered at a frequency of 1 kHz. Micro-electrodes were fabricated from borosilicate glass (GC120TF-10, Harvard Apparatus, Edenbridge, Kent, UK) using a one stage horizontal pull (P-87, Sutter Instrument Company, California, USA) and filled with 3 M KCl. Pipette resistances ranged from 1.0 to 2.0 MΩ. Oocytes were perfused with ND96 at a constant rate of 12 ml min^−1. Drug application was via a simple gravity fed system calibrated to run at the same rate.
(§4) Analysis and curve fitting was performed using Prism v5 (GraphPad Software, San Diego, California, USA). Concentration-response data for each oocyte was normalised to the maximum current for that oocyte. The mean and S.E.M. for a series of oocytes were fitted to the four parameter logistic equation in Prism.

Assay [2] concerns the target T2, N-7′H mutant Drosophila RDL receptor (Drosophila melanogaster, UniProt P25123, N292H).
T2 construct: expressed in transfected cells; host or cells: Xenopus laevis oocytes injected with cRNA
T2 sequence (P25123 45-606 N292H): T1 sequence (P25123 45-606 N292H/T305M/A319S/A320Q) with M261T, S275A, Q276A
As to conditions: N-7′H RDL. The method, then:
as §1, §2, §3, §4

The target in assay [3] is T3, T6′M mutant Drosophila RDL receptor (Drosophila melanogaster, UniProt P25123, T305M).
T3 construct: expressed in transfected cells; host or cells: Xenopus laevis oocytes injected with cRNA
T3 sequence (P25123 45-606 T305M): T1 sequence (P25123 45-606 N292H/T305M/A319S/A320Q) with H248N, S275A, Q276A
As for the experimental part:
as §1, §2, §3, §4

Where [4] appears, read: inhibition of GABA responses, read-out: Picrotoxin pIC50 (converted).

Here are results for one substance from article PMC4261083, “An atypical residue in the pore of Varroa destructor GABA-activated RDL receptors affects picrotoxin block and thymol modulation” (Insect Biochemistry and Molecular Biology, 2014).

Changes are numbered by the printed parent chain. A value given as a limit tells only on which side of the number the result lay.

For picrotoxin, the “Sensitivity to PTX” value in assay [1] (PTX up to 100 μM) and in assay [3] (PTX up to 100 μM) was “insensitive” throughout. Besides, the IC50 in assay [1] (setting [4]) was greater than 100 µM; in assay [2], 0.56 µM; in assay [3] (setting [4]), greater than 100 µM. Moreover, the “Picrotoxin pIC50” value in assay [2] worked out at 6.25 ± 0.64.
